The numbers were not newly measured in patent US20080171791A1, “Compositions and Method for Losing Weight” (MDR Fitness Corp., priority 2007, published 2008), which cites them from elsewhere.

The conditions of data set [1]: in vivo.
In data set [2] the test system is mammalian target of rapamycin (mTOR) signaling pathway. The following applies: rats; for food intake: administered near arcuate nucleus, approximately four hours after administration, lasted 24 hours.
For data set [3] the following is noted: long-term / large quantities / higher amounts ingested.
A further data set relates to lipogenic genes. The following applies: compared with oleic acid (C18-1).

SMILES strings stand for the structures.

For the compound `CCCCCCCCC=CCCCCCCCC(=O)O` [oleic acid, 9-octadecenoic acid], in data set [1], the “absorption from the digestive tract” value is on record as “absorbed intact” and the “crossing the blood-brain barrier” value is given as “capable of crossing the blood-brain barrier”.

In the case of `CC(C)[C@H](N)C(=O)O` [L-valine, valine], the solubility in water entry was “water soluble”. In addition, the food intake result in data set [2] is reported as “did not cause the same effect”. The reported adverse effects entry in data set [3] was “hallucinations and crawling sensations on the skin”.

Regarding `CCC(C)[C@H](N)C(=O)O` (stereo in doubt) [Isoleucine, (2S, 3S)-2-amino-3-methylpentanoic acid], the solubility in water entry is reported as “not soluble in water”. In addition, the reported adverse effects entry in data set [3] is on record as “increased urination”.

As to `CC(C)C[C@H](N)C(=O)O` [L-leucine, leucine], the solubility in water result is “slightly soluble in water”. For the same compound, the body weight entry in data set [2] (accompanying decrease in food intake) is recorded as “weight loss”. In data set [2], the food intake result is “decrease”. In addition, the “crossing the blood-brain barrier” value in data set [1] is recorded as “capable of crossing the blood-brain barrier”.

Turning to `CCCCC/C=C\C/C=C\C/C=C\C/C=C\CCCC(=O)O` [arachidonic acid], the “suppression of lipogenic genes” value in the data set with lipogenic genes is “more effective”.

`CCCCC/C=C\C/C=C\CCCCCCCC(=O)O` [linoleic acid]: the “suppression of lipogenic genes” value with lipogenic genes was “more effective”.
